Laboratory results: patent publication EP4745134A1 (Jiangsu Yahong Meditech Co., Ltd., priority 2023, dated 2025)
Read-outs that look alike come from different tables or passages of the source.

Tests used:
[1] = tested on: HCT116 MTAP KO cells; experiment: Inhibitory activity against cell proliferation (CellTiter Glo, 6 days), HCT116 MTAP KO; assay type: cell-based; conditions: for IC50: HCT116 MTAP KO cells, 6 days, CellTiter Glo, read-out: HCT116 MTAP KO IC50; for Selectivity HCT 116-WT/ HCT116 MTAP KO: ratio of IC50 HCT116-WT / HCT116 MTAP KO
Protocol: (§1) HCT116-WT (ATCC, CCL-247) and HCT116 MTAP KO (Nanjing Cobioer, CBP75002) cells were seeded into white low-transparency sterile 96-well cell culture plates at a density of 250 cells per well respectively, and the culture medium was McCoy's 5A Medium+10% FBS. The plates were placed under the condition of 37°C and 5% CO2 to be cultured overnight. The cells were treated with 4-fold serially diluted compounds of 8 concentration points starting at an initial concentration of 10000 nM, and the last two columns were used as control wells to which only DMSO was added. The drug-treated cells were further cultured for 6 days. On day 7, CellTiter Glo® reagent was added at 50 uL per well, and after reaction under shaking for 10 minutes at room temperature, the chemiluminescence signals were detected for the well plates through the chemiluminescence detection method using a BIOTEK H1 multifunctional microplate-reader. The IC50 values for inhibition of the compounds on cell viability were calculated in X1fit 5.0 software. Table 2. IC50 values for inhibition of the compounds on HCT116 MTAP KO/WT cell growth

[2] = tested on: HCT116-WT cells; experiment: Inhibitory activity against cell proliferation (CellTiter Glo, 6 days), HCT116-WT; assay type: cell-based; conditions: 144 h, HCT116-WT cells, 6 days, CellTiter Glo; read-out: HCT116-WT IC50
Protocol: as §1

[3] = molecular target: PRMT5-MTA (Homo sapiens, UniProt O14744); experiment: Enzymatic inhibitory activity against PRMT5-MTA (AlphaScreen); assay type: biochemical; conditions: read-out: IC50
Procedure, shortened: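 PRMT5/[…] (1 nM) was preincubated for 30 min at room temperature with 1 µM […] and 2.5 µM SAM, then exposed to compound (10-point, 3-fold from 1000 nM) for 15 min at 23 °C. Histone H4 substrate (5 nM) was added and reacted for 45 min at 23 °C. Symmetric dimethyl-R3 H4 was detected by AlphaScreen and IC50 calculated.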

Sequence of PRMT5-MTA (O14744 whole entry): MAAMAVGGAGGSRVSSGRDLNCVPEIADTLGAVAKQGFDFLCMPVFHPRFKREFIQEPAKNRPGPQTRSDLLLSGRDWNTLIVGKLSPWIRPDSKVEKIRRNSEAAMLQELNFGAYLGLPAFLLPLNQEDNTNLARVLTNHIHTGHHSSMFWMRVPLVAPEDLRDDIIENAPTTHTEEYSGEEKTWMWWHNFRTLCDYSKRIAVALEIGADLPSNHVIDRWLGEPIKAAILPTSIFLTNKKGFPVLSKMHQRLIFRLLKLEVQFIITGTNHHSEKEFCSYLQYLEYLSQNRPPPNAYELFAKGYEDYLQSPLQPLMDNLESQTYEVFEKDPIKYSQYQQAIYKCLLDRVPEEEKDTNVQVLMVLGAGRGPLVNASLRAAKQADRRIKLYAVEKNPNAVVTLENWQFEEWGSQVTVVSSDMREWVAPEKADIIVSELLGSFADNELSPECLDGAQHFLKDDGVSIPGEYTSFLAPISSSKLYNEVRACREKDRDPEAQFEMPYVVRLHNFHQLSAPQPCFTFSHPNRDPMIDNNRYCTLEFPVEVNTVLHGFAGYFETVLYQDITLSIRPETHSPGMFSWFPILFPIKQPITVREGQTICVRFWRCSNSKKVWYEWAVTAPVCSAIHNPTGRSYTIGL
Sequence of PRMT5-MTA (Q9BQA1 whole entry partner): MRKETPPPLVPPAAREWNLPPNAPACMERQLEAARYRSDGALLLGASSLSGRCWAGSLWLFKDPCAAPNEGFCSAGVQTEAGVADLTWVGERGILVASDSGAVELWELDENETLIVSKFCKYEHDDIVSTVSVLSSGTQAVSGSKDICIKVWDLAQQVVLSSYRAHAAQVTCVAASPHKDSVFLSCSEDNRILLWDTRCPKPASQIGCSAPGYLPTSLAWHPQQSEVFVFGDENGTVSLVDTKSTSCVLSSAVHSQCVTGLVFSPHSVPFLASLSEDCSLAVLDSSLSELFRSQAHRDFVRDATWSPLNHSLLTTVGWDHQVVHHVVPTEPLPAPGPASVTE

SMILES	IC50 ([1]; Homo sapiens, HCT-116, 144 h) [nM]	IC50 [2] [nM]	IC50 [3] [nM]	IC50 [1] [nM]	Selectivity HCT 116-WT/ HCT116 MTAP KO [1]
Nc1nc2ccc(C(=O)N3CCCN3c3ccc(C(F)(F)F)cn3)cc2c2c1COC2 [Example 341, (4-amino-1,3-dihydrofuro[3,4-c]quinolin-8-yl)(2-(5-(trifluoromethyl)pyridin-2-yl)pyrazolidin-1-yl)methanone]	> 10000	–	4.7	–	–
CC1CN(C(=O)c2cc3c(cc2F)nc(N)c2cnn(C)c23)N(c2ncccc2F)C1 (single isomer, unassigned) [Example 467]	94	3040	–	–	32.33
Cc1cc2cc(C(=O)N(Cc3ccc(-c4cnc5c(cnn5C)c4)cn3)N(C)c3ncccn3)ccc2nc1N [Example 190, 2-amino-N',3-dimethyl-N-((5-(1-methyl-1H-pyrazolo[3,4-b]pyridin-5-yl)pyridin-2-yl)methyl)-N'-(pyrimidin-2-yl)quinoline-6-carbohydrazide]	32	835	–	–	26.09
Cc1cc2nc(N)c3cnn(C)c3c2cc1C(=O)N1C(C)CCN1c1ncccc1F (stereo not shown) [Example 375, (4-amino-1,7-dimethyl-1H-pyrazolo[4,3-c]quinolin-8-yl)(2-(3-fluoropyridin-2-yl)-5-methylpyrazolidin-1-yl)methanone]	–	–	2.5	280	–
Cc1cc2nc(N)c3cnn(C)c3c2cc1C(=O)N1CCCN1c1ccccn1 [Example 349, (4-amino-1,7-dimethyl-1H-pyrazolo[4,3-c]quinolin-8-yl)(2-(pyridin-2-yl)pyrazolidin-1-yl)methanone]	458	–	6.1	–	–
Cc1cc2nc(N)c3cnn(C)c3c2cc1C(=O)N1CCCN1c1ccc(F)cn1 [Example 344, (4-amino-1,7-dimethyl-1H-pyrazolo[4,3-c]quinolin-8-yl)(2-(5-fluoropyridin-2-yl)pyrazolidin-1-yl)methanone]	458	–	4.7	–	–
Cc1cc2nc(N)c3cnn(C)c3c2cc1C(=O)N1CCCN1c1ccc(C(F)(F)F)nc1 [Example 329, (4-amino-1,7-dimethyl-1H-pyrazolo[4,3-c]quinolin-8-yl)(2-(6-(trifluoromethyl)pyridin-3-yl)pyrazolidin-1-yl)methanone]	831	–	3.4	–	–
Cc1cc2cc(C(=O)N(Cc3ccc(-c4scnc4C)cn3)N(c3nccc4nccnc34)C3CC3)ccc2nc1N [Example 165, 2-amino-N'-cyclopropyl-3-methyl-N-((5-(4-methylthiazol-5-yl)pyridin-2-yl)methy 1)-N'-(pyrido[3,4-b]pyrazin-5-yl)quinoline-6-carbohydrazide]	–	–	3.3	–	–
CCN(C(=O)c1ccc2nc(N)c3c(c2c1)COC3)N(C)c1ccc(C(F)(F)F)cc1 [Example 115, 4-amino-N-ethyl-N-methyl-N-(4-(trifluoromethyl)phenyl)-1,3-dihydrofuro[3,4-c]quinoline-8-carbohydrazide]	–	–	2	–	–
Cc1cc2cc(C(=O)N(Cc3ccc(C(F)(F)F)cn3)N(C)c3ncc(S(C)(=O)=O)cn3)ccc2nc1N [Example 96, 2-amino-N',3-dimethyl-N'-(5-(methylsulfonyl)pyrimidin-2-yl)-N-((5-(trifluoromethyl)pyridin-2-yl)methyl)quinoline-6-carbohydrazide]	–	–	2.6	–	–
CN(c1ncccn1)N(Cc1ccc(C(F)(F)F)cn1)C(=O)c1ccc2nc(N)c3cnn(C)c3c2c1 [Example 11, 4-amino-N',1-dimethyl-N'-(pyrimidin-2-y 1)-N-((5-(trifluoromethyl)pyridin-2-yl)methyl)-1H-pyrazolo[4,3-c]quinoline-8-carb ohydrazide]	–	–	1	–	–

Second part, led by results:

IC50 ([1]; Homo sapiens, HCT-116, 144 h) [nM]	IC50 [2] [nM]	IC50 [3] [nM]	IC50 [1] [nM]	SMILES	Selectivity HCT 116-WT/ HCT116 MTAP KO [1]
3.9	63	–	–	CN(c1ncccn1)N(Cc1ccc(-c2cnn(C(F)(F)F)c2)cn1)C(=O)c1ccc2nc(N)c3cnn(C)c3c2c1 [Example 248, 4-amino-N',1-dimethyl-N'-(pyrimidin-2-yl)-N-((5-(1-(trifluoromethyl)-1H-pyrazol-4-yl)pyridin-2-yl)methyl)-1H-pyrazolo[4,3-c]quinoline-8-carbohydrazide]	16.15
30	646	–	–	Cc1cc2cc(C(=O)N(Cc3ccc(-c4ccc(N(C)C)nc4)cn3)N(C)c3ncccn3)ccc2nc1N [Example 212, 2-amino-N-((6'-(dimethylamino)-[3,3'-bipyridine]-6-yl)methyl)-N',3-dimethyl-N'-(pyrimidin-2-yl)quinoline-6-carbohydrazide]	21.53
216	3140	–	–	Cc1cc2cc(C(=O)N(Cc3ccc4sc(C5=CCN(C)CC5)nc4c3)N(C)c3ncccn3)ccc2nc1N [Example 195, 2-amino-N',3-dimethyl-N-((2-(1-methyl-1,2,3,6-tetrahydropyridin-4-yl)benzo[d]thiazol-5-yl)methyl)-N'-(pyrimidin-2-yl)qui noline-6-carbohydrazide]	14.53
20	750	–	–	Cc1cc2cc(C(=O)N(Cc3ccc(-c4nccs4)cn3)N(C)c3ncccn3)ccc2nc1N [Example 234, 2-amino-N',3-dimethyl-N'-(pyrimidin-2-yl)-N-((5-(thiazol-2-yl)pyridin-2-yl)methyl)quinoline-6-carbohydrazide]	37.50
29	708	–	–	Cc1cc2cc(C(=O)N(Cc3ccc(-c4cnc5nn(C)cc5c4)cn3)N(C)c3ncccn3)ccc2nc1N [Example 150, 2-amino-N',3-dimethyl-N-((5-(2-methyl-2H-pyrazolo[3,4-b]pyridin-5-yl)pyridin-2-yl)methyl)-N'-(pyrimidin-2-yl)quinoline-6-carbohydrazide]	24.41
60	5370	–	–	Cc1cc2nc(N)c3cnn(C)c3c2cc1C(=O)N1CCCN1c1ncc(-c2cnc3c(cnn3C)c2)cc1F [Example 482, (4-amino-1,7-dimethyl-1H-pyrazolo[4,3-c]quinolin-8-yl)(2-(3-fluoro-5-(1-methyl-1H-pyrazolo[3,4-b]pyridin-5-yl)pyridin-2-yl)pyrazolidin-1-yl)methanone]	89.47
26	743	–	–	Cn1ncc2c(N)nc3cc(Cl)c(C(=O)N4CC(C)(F)CN4c4ncc(Br)cc4F)cc3c21 (stereo not shown) [Example 420, (4-amino-7-chloro-1-methyl-1H-pyrazolo [4,3-c]quinolin-8-yl)(2-(5-bromo-3-fluor opyridin-2-yl)-4-fluoro-4-methylpyrazolidin-1-yl)methanone]	28.58
202	3950	–	–	CN(c1ncccn1)N(Cc1ccc(C(F)(F)F)cn1)C(=O)c1ccc2nc(N)c(Cl)cc2c1 [Example 105, 2-amino-3-chloro-N'-methyl-N'-(pyrimidin-2-yl)-N-((5-(trifluoromethyl)pyridin-2-yl)methyl)quinoline-6-carbohydrazide]	19.56
18	482	–	–	Cc1cc2cc(C(=O)N(Cc3ccc(-c4ccc(N(C)CCO)nc4)cn3)N(C)c3ncccn3)ccc2nc1N [Example 246, 2-amino-N-((6'-((2-hydroxyethyl) (methyl)amino)-[3,3'-bipyridine]-6-yl)methyl)-N',3-dimethyl-N'-(pyrimidin-2-yl)quinoline-6-carbohydrazide]	26.78
54	1350	–	–	[2H]C([2H])([2H])c1cc2cc(C(=O)N(Cc3ccc(-c4nncs4)cn3)N(c3ncccn3)C3CC3)ccc2nc1N [Example 315, N-((5-(1,3,4-thiadiazol-2-yl)pyridin-2-yl)methyl)-2-amino-N'-cyclopropyl-3-(methyl-d3)-N'-(pyrimidin-2-yl)quinoline-6-carbohydrazide]	24.96
58	1170	–	–	Cc1cc2cc(C(=O)N(Cc3ccc(-c4cnn(C(C)(C)C)c4)cn3)N(C)c3ncccn3)ccc2nc1N [Example 205, 2-amino-N-((5-(1-(tert-butyl)-1H-pyrazol-4-yl)pyridin-2-yl)methyl)-N',3-dimethyl-N'-(pyrimidin-2-yl)quinoline-6-carbohydr azide]	20.14
42	503	–	–	COCCN(C)c1ccc(-c2ccc(CN(C(=O)c3ccc4nc(N)c(C)cc4c3)N(C)c3ncccn3)nc2)cn1 [Example 254, 2-amino-N-((6'-((2-methoxyethyl)(methyl)amino)-[3,3'-bipyridine]-6-yl)methyl)-N',3-d imethyl-N'-(pyrimidin-2-yl)quinoline-6-carbohydrazide]	11.98
405	–	6	–	Cc1cc2nc(N)c3cnn(C)c3c2cc1C(=O)N1CCCN1c1ncccn1 [Example 332, (4-amino-1,7-dimethyl-1H-pyrazolo[4,3-c]quinolin-8-yl)(2-(pyrimidin-2-yl)pyrazolidin-1-yl)methanone]	–
